Data taken from patent publication US4738954A, “Novel N^6 -substituted-5'-oxidized adenosine analogs” (Warner-Lambert Company, priority 1985, dated 1988).

How the values were obtained:
[1] = tested on: platelets (ADP-induced aggregation); test: Antithrombocyte aggregation test in vitro (ATA-8), ADP-induced, whole blood; type: cell-based, human (Community Research Clinic volunteers); conditions: Homo sapiens, Platelet
Experimental: (§1) ANTITHROMBOCYTE AGGREGATION TEST-IN VITRO (ATA-8)
Blood is collected from Community Research Clinic volunteers who have not ingested aspirin or other non-steroidol antiinflammatory drugs within the preceeding two weeks and have not eaten within the nine hours before blood draw. Blood is taken in 4.5 ml portions in Vacutainer No. 6462S silicone-coated tubes or equivalent containing 0.5 ml of 3.8% trisodium citrate. Usually six or eight portions of 4.5 ml are drawn from each volunteer. […] The pooled blood is put in 50 ml polyethylene tubes and centrifuged at 80×g (ca 600 rpm) for 20 min in an International Model K centrifuge at room temperature. […]
(§2) Addition of drug solution or saline (0.02 ml) is followed in 5 min by addition of aggregating agent (ADP or collagen suspension, 0.02 ml). Extent of aggregation, using ADP stimulus, or rate of aggregation, using collagen stimulus, is determined using the Payton Scientific Dual Channel Aggregation Module, Model 300B. Appropriate concentrations of ADP or collagen are determined by an initial brief titration.
The height in millimeters of aggregation curves for control aggregations (no drug addition, saline only) are compared with the heights of curves obtained after drug addition at various appropriate concentrations. Heights after drug addition are finally expressed as "percent of control" values. […]

[2] = tested on: platelets (collagen-induced aggregation); test: Antithrombocyte aggregation test in vitro (ATA-8), collagen-induced, whole blood; type: cell-based, human (Community Research Clinic volunteers); conditions: Homo sapiens, Platelet
Experimental: as §1
Blood is collected from Community Research Clinic volunteers who have not ingested aspirin or other non-steroidol antiinflammatory drugs within the preceeding two weeks and have not eaten within the nine hours before blood draw. Blood is taken in 4.5 ml portions in Vacutainer No. 6462S silicone-coated tubes or equivalent containing 0.5 ml of 3.8% trisodium citrate. Usually six or eight portions of 4.5 ml are drawn from each volunteer. The blood collected from three or four volunteers is pooled prior to centrifugation. […]
as §2
The major slope (that is, the slope of the first straight line portion) of the collagen-induced aggregation curve for each drug concentration is determined and compared to the slope of the curve for control aggregations. Values for drug test aggregations are expressed as "precent of control" and are plotted versus drug concentration on semilog paper. […]

- IC50 [1]: 0.7 nM
- IC50 [2]: 50 nM
Structure (SMILES): CCNC(=O)[C@H]1O[C@@H](n2cnc3c(N[C@H](C)Cc4ccccc4)ncnc32)[C@H](O)[C@@H]1O [Example 1, (R)-N-6-[(2-phenyl-1-methyl)ethyl]-adenosine-5'-ethylcarboxamide]
